Results published in patent publication US12698281B2, “Thiazole derivatives for therapeutic use” (NIMML Institute, priority 2022, dated 2026).

Assays:
CD4+ T cells = assay: CD4+ T cell culture, CD4+ IFNγ+ cells by flow cytometry; type: cell-based, mice; details: 24 hours, PMA and ionomycin final 6 hours, relative to vehicle treated wells
Protocol: CD4+ T cells are central to the generation of inflammation in a variety of conductions. In addition, CD4+ T cells are primary responders to the IL-18 cytokine. As such, CD4+ T cells were cultured in vitro in the presence of selected compounds to test for pharmacological activity.
CD4+ T cell culture. Spleens were excised from mice and crushed between frosted microscope slides. Cellular suspension was filtered, centrifuged and exposed to hypotonic lysis to remove red blood cells. CD4+ T cells were enriched by magnetic sorting. Cells were re-suspended in IMDM and cultured in CD3- and CD28-coated round bottom wells. Cells were treated with indicated compounds at 10 and 100 nM or vehicle for 24 hours. During the final 6 hours, cells were stimulated with phorbol myristate acetate and ionomycin. Cells were then collected and stained with antibodies to detect CD45+ CD4+ IFNγ+ cells by flow cytometry. Data was acquired using a FACS Celesta flow cytometer with FACSDiva software.

DSS colitis model = assay: DSS colitis model; type: in vivo, mice; details: oral, 20 mg/kg once daily, DSS in drinking water for seven days; for proportion of CD4+ IFNγ+ cells in the colonic lamina propria: flow cytometry; for severity of disease by macroscopic scoring of the colon: score 0 to 4, relative to vehicle group
Description: Inflammation of the gastrointestinal tract can be caused by numerous factors including food antigens, infectious agents, autoimmunity, or radiation. The dextran sulfate sodium (DSS) model provides a model system where the epithelial barrier is disrupted in the distal intestine allowing for translocation of bacteria and generation of immune responses. DSS model. Mice were given DSS in drinking water for seven days. At project initiation, mice were approximately 8 weeks of age and began dosing 24 hours after being placed on DSS water. Treatments were prepared within a 0.5% methylcellulose solution. The dosage used was 20 mg/kg delivered once daily. At conclusion, colons were scored macroscopically for presence of lesions, blood, stool consistency, mucosal thickening, friability and length on a summarized score from 0 to 4. Flow cytometry. Colons were collected into RPMI/FBS buffer containing collagenase and DNase for digestion. Tissues were digested for 60 minutes under stifling at 37° C. Resultant cellular suspensions were filtered through 100 um strainers, centrifuged and washed in fresh RPMI. Following filtration, immune cells were purified by Percoll gradient of the cell-containing 40% Percoll overlayed onto 70% Percoll solution. After centrifugation, interphase was collected and washed to obtain enriched colonic lamina propria cell fractions. Cells were labeled with mixtures of extracellular and intracellular antibodies to quantify the presence of CD45+ CD3+ CD4+ CD8− IFNγ+ cells. Data was acquired using a FACS Celesta flow cytometer with FACSDiva software.

Row | SMILES | proportion of CD4+ IFNγ+ cells (CD4+ T cells; 100 nM) | proportion of CD4+ IFNγ+ cells in the colonic lamina propria (DSS colitis model) | severity of disease by macroscopic scoring of the colon (DSS colitis model) | proportion of CD4+ IFNγ+ cells (CD4+ T cells; 10 nM)
1 | O=C1C=C(C(=O)N2CCO[C@H](C(=O)c3ncc(-c4ccccc4F)s3)C2)NN2CC=CC12 (stereo partly drawn) [Compound 69, 2-((S)-2-(5-(2-fluorophenyl)thiazole-2-carbonyl)morpholine-4-carbonyl)-4a,7-dihydropyrrolo[1,2-b]pyridazin-4(1H)-one] | significantly reduced |  |  | 
2 | O=C(c1ncc(-c2ncccc2F)s1)[C@@H]1CN(C(=O)c2cc(F)ccn2)CCO1 [Compound 40, 4-fluoro-pyridin-2-yl(2-(S)-(5-(3-fluoropyridin-2-yl)thiazol-2-carbonyl)-morpholin-4-yl)methanone] | significantly reduced | reducing | reduced | significantly reduced
3 | COc1cc(-c2cnc(C(=O)C3CCN(C(=O)c4cnnc5ccccc45)CC3)s2)ccc1O [Compound 11, cinnolin-4-yl(4-(5-(4-hydroxy-3-methoxyphenyl)thiazole-2-carbonyl)-piperidin-1-yl)methanone] | significantly reduced | reducing | reduced | significantly reduced
4 | O=C(c1ncc(-c2ncccc2F)s1)[C@@H]1CN(C(=O)c2cc(F)c(F)cn2)CCO1 [Compound 34, 4,5-difluoro-pyridin-2-yl(2-(S)-(5-(3-fluoropyridin-2-yl)thiazol-2-carbonyl)-morpholin-4-yl)methanone] | significantly reduced |  |  | significantly reduced
5 | O=C(c1ncc(-c2ncccc2F)s1)[C@@H]1CN(C(=O)c2cnnc3ccccc23)CCO1 [Compound 37, cinnolin-4-yl(2-(S)-(5-(3-fluoropyridin-2-yl)thiazol-2-carbonyl)-morpholin-4-yl)methanone] | significantly reduced | reducing | reduced | 
